The series in a line: physchem. Particulars: water.

The structures appear in SMILES notation. Values after ≈ are worked out from the molar mass of the structure shown.

`Cc1ccc(Cl)c(Nc2ccccc2C(=O)O)c1Cl` [MA, Meclofenamic acid] registered a solubility of 30 µg/mL (≈ 101 µM).

One may read the solubility as the concentration that dissolves in the medium under given conditions. High values mean a readily soluble substance, low ones a poorly soluble substance.

The values are drawn from US5385941A, “Salts/ion pairs of non-steroidal anti-inflammatory drugs in various dosage forms” (Warner-Lambert Company, priority 1993, dated 1995).
